Values joined by “and” are separate entries in the source; they are usually repeats but may differ in a detail not shown here. Equal entries are not always repeated. Where no end group is shown, it is not given here.

In assay [1] the target is T1, hSIRT1-143 (Homo sapiens, UniProt Q96EB6).
T1 construct: Schematic of SIRT1-143 design, consisting of residues 143–512 and the region 641–665; SUMO (smt3) (N, cleaved yes); His tag (N, cleaved yes); made in house; host or cells: E. coli BL21 (DE3)
T1 sequence (Q96EB6 143-512 limits assumed): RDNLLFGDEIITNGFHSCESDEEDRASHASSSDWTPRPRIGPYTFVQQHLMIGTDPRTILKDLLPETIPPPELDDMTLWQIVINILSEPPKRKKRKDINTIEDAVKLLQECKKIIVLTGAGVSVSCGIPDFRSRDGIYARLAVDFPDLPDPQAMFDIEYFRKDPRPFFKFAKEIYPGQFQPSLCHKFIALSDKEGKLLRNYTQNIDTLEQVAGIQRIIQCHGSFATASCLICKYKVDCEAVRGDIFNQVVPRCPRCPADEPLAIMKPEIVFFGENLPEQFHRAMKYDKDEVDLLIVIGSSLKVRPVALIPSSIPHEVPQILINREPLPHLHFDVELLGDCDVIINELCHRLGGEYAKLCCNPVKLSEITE
T1 sequence (Q96EB6 641-665 limits assumed): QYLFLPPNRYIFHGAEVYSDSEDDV
Briefly: Enzyme-coupled continuous SIRT1 deacetylase kinetics assay (Michaelis-Menten). The assay is classed as biochemical. The conditions noted are these: for K M / k cat / k cat/K M: peptide as substrate, without resveratrol. The procedure: Assays were conducted in accordance with a prior publication ([Smith et al., 2009]). Peptide substrates were 11 or 13-mer peptides with acetylated lysine at the middle residue position, synthesized and purified by Elim BioPharm (Hayward, CA) to a purity of 90%. The following reagents were used in the assay mixtures: 5–640 μM peptide substrate, 640 μM NAD^+, 2 mM MPB-PncA (nicotinamidase), 20 mM phosphate buffer pH 7.6, 3 mM α-ketoglutarate, 1 mM DTT, 0.2 mM NADPH, and 6.7 units of glutamate dehydrogenase. Then, 0.2–1 μM of the SIRT1 enzyme was added to start the reactions. SIRT1 reactions were conducted in a transparent, flat-bottomed, 96-well plate with a final volume of 150 μL per well and read with a BioTek™ Synergy HTX Multimode Reader. […] After SIRT1 was added, absorbance at 340 nm was measured to quantify the rate of NADPH depletion for a duration of 10 min. Initial rates of the reaction were calculated using 6.22 mM^-1cm^-1 as the extinction coefficient for NADPH and fitting the slope of the linear component of the reaction. The initial velocity of the reaction absent the peptide substrate, which served as a background control, was subtracted from the initial velocities of all other reactions. By fitting the initial rate data to the Michaelis-Menten equation in GraphPad Prism, the values for k cat and K M were obtained.

The target in assay [2] is T1, hSIRT1-143. In words: Differential scanning fluorimetry (SYPRO Orange) thermal stability of SIRT1 complexes. The assay is classed as binding. As to conditions: 200 μM resveratrol. The procedure:
Differential Scanning Fluorimetry experiments were performed in a 384-well plate using a qTOWER real-time PCR thermal cycler (Analytik Jena). Fluorescence intensity was measured in the TAMRA channel (Ex: 535 nm Em: 580 nm) over a period of 1 h with a 1°C increase temperature ramp per cycle in “Normal” mode. […] 1:100 SYPRO® Orange (Millipore) dye diluted in buffer was also added to each well. All measurements were performed in triplicate, with buffer-only controls containing ADPr, resveratrol, and peptide performed for all conditions. Tma was calculated using the first derivative method and fitting a Lorentzian distribution to the first derivative curve (Tma = center of curve/inflection point) in GraphPad Prism ([Wu et al., 2020]).

Assay [3] concerns the target T1, hSIRT1-143. In words: Small angle X-ray scattering (SAXS) of SIRT1 complexes. On Rg: values in Å. On Rxs: values in Å. The conditions noted are these: for Rg / Rxs: + 200 μM resveratrol; for Δ Rg / Δ Rxs: + vs - 200 μM resveratrol. As to the method:
SAXS samples were prepared with 40 μM of hSIRT1-143 in storage buffer (50 mM Tris pH 8.0, 150 mM NaCl, 1 mM DTT). All samples contained 640 μM of NAD^+ analog ADPr (adenosine diphosphate ribose) except for the apo SIRT1 sample. Varying concentrations of different peptide substrates (500–5,000 μM) were added to the different samples. The concentration of peptide substrate added was determined based on previous kinetics assays to ensure that SIRT1 is mostly saturated with the peptide.
With an X-ray wavelength of 1.216 Å and a sample-to-detector distance of 2070 mm, the scattering vector, q, varied from 0.01 to 0.45. Where 2θ is the scattering angle, the scattering vector is defined as q = 4π sin θ/λ. The experiments were conducted at a temperature of 20°C. The sample was placed for 10 s with the detector framing at 0.3 s to optimize the signal using the SAXS FrameSlice program (https://bl1231.als.lbl.gov/ran). ATSAS 3.0 Primus software was utilized to plot and analyze the combined SAXS ([Manalastas-Cantos et al., 2021]).

The target of assay [4] is T1, hSIRT1-143. Briefly: Differential scanning fluorimetry (SYPRO Orange) thermal stability of SIRT1 complexes. The assay is classed as binding. As to conditions: SIRT1•ADPr•Ac-H3; 200 μM resveratrol; single data set. Background: Differential scanning fluorimetry follows unfolding on heating by fluorescence.
[5] abbreviates: towards Ac-p53W, 200 μM resveratrol.

Turning to `Oc1ccc(/C=C/c2cc(O)cc(O)c2)cc1` [resveratrol], the “increases in K M” value in assay [1] (towards Ac-p53, Ac-H4, Ac-H3 and Ac-CSNK, 200 μM resveratrol) is 2-6 fold. In addition, the “decrease in K M” value in assay [1] (setting [5]) was 2 fold. Moreover, the “increase of overall SIRT1 activity (k cat/K M)” value in assay [1] (setting [5]) stood at 2 fold. Further, the “effect on k cat values” in assay [1] (towards any of the peptide substrates, 200 μM resveratrol) is “did not have significant effects”. Moreover, the figures for the “decrease of Tma” value in assay [2] (SIRT1 in complex with ADPr) and in assay [2] (apo SIRT1) were 0.2 °C and 1.7 °C, respectively. In assay [2] (SIRT1•ADPR•Ac-p53W complex), the “decrease of melting temperature” value was determined as 1 °C. Moreover, the “Tma + res” value in assay [2] (SIRT1•ADPr) amounted to 49.9 ± 0.44 °C; in assay [2] (SIRT1•ADPr•Ac-CSNK), 46.0 ± 0.94 °C; in assay [2] (SIRT1•ADPr•Ac-H4), 46.5 ± 1.49 °C; in assay [2] (SIRT1•ADPr•Ac-p53) it was 48.2 ± 0.54 °C; in assay [2] (SIRT1•ADPr•Ac-p53W), 49.5 ± 0.46 °C; in assay [2] (apo SIRT1) it was 49.4 ± 0.48 °C. Moreover, the “Tma + res” value in assay [4] came out at 46.3 ± 0.55 °C. Moreover, the Rg was 35.45 Å in assay [3] (SIRT1•ADPr); 33.87 Å in assay [3] (SIRT1•ADPr•Ac-CSNK); 35.94 Å in assay [3] (SIRT1•ADPr•Ac-H3); 36.99 Å in assay [3] (SIRT1•ADPr•Ac-H4); 34.92 Å in assay [3] (SIRT1•ADPr•Ac-p53); 36.91 Å in assay [3] (SIRT1•ADPr•Ac-p53W). Moreover, the Rg in assay [3] (apo SIRT1) is on record as 32.26 Å. The Rxs was found to be 14.19 Å in assay [3] (SIRT1•ADPr); 12.67 Å in assay [3] (SIRT1•ADPr•Ac-CSNK); 12.42 Å in assay [3] (SIRT1•ADPr•Ac-H3); 13.7 Å in assay [3] (SIRT1•ADPr•Ac-H4); 14.37 Å in assay [3] (SIRT1•ADPr•Ac-p53); 13.86 Å in assay [3] (SIRT1•ADPr•Ac-p53W). In assay [3] (apo SIRT1), the Rxs is 11.26 Å. Further, the “Δ Rg” value is 1.7% in assay [3] (SIRT1•ADPr); 4.9% in assay [3] (SIRT1•ADPr•Ac-CSNK); 3.1% in assay [3] (SIRT1•ADPr•Ac-H3); 7.3% in assay [3] (SIRT1•ADPr•Ac-H4); 9.2% in assay [3] (SIRT1•ADPr•Ac-p53); 9% and 8.9% in assay [3] (SIRT1•ADPr•Ac-p53W). The “Δ Rg” value in assay [3] (apo SIRT1) is given as 6.3%. Further, the “Δ Rxs” value in assay [3] (SIRT1•ADPr) was 39.9%; in assay [3] (SIRT1•ADPr•Ac-p53W), 7% and 6.9%; in assay [3] (apo SIRT1), 9.7%.
For “^2ASSSGSK^AcAEFIVG^14 (ASSSGSK(Ac)AEFIVG; UniProt P48729 2-14, looked up, fragment) [Ac-CSNK, 13-mer SIRT1 peptide substrate with acetylated lysine, casein kinase 1 alpha 1 (K8)]”, in assay [1], the “K M” value is 78 ± 2.2 µM, the k cat was 0.06 ± 0.002 s⁻¹ and the “k cat/K M” value is 700 ± 200 M⁻¹ s⁻¹.
Regarding ^3VRGKAGK^AcGLGKGG^15 [Ac-H4], in assay [1], the “K M” value is 108 ± 5.5 µM, the k cat came out at 0.09 ± 0.006 s⁻¹ and the “k cat/K M” value is 1000 ± 400 M⁻¹ s⁻¹.
The like results for ^9KSTGGK^AcAPRKQ^19 [Ac-H3] were, in that order, 121 ± 12.6 µM, 0.06 ± 0.009 s⁻¹ and 500 ± 300 M⁻¹ s⁻¹.
The like results for “^376STSRHKK^AcLMFKTE^388 (STSRHKK(Ac)LMFKTE; UniProt P04637 376-388, looked up, fragment) [Ac-p53, 13-mer SIRT1 peptide substrate with acetylated lysine, p53(K382)]” were, in that order, 25 ± 0.2 µM, 0.08 ± 0.009 s⁻¹ and 3000 ± 30 M⁻¹ s⁻¹.
Taken in the same sequence, the figures for ^376STSRHKK^AcWMFKTE^389 [Ac-p53W] were 13 ± 1.4 µM, 0.06 ± 0.001 s⁻¹ and 5000 ± 500 M⁻¹ s⁻¹.

These data come from PMC10499324, “The differing effects of a dual acting regulator on SIRT1” (Frontiers in Molecular Biosciences, 2023).
